The conditions of assay [1]: cited from earlier work; for IC50: as described in Sidrauski et al. eLIFE 2:e00498 (2013).
The subject of assay [2] is trophoblast stem-like cells. The experiment in a line: Passaging of trophoblast stem-like cells in TE3 medium with or without Chroman 1 or CEPT supplementation. The format is cell-based, human. Particulars: additional 25 nM Chroman 1, alone or as component of CEPT, in TE3 medium (total 50 nM Chroman 1) for first 24 hours after passaging; WA09-derived cells, reproduced with JHU191i, JHU198i, MCW032i, WA07. The protocol:
To generate self-renewing trophoblast stem-like cells from the syncytiotrophoblast-like structures, the syncytiotrophoblast-like structures were cultured in TE3 medium: TE2 medium supplemented with 300 nM CHIR98014, 100 ng/ml EGF, 50 ng/ml HGF, 80 ng/ml R-spondin 1, 50 ng/ml R-spondin 3, 2.5 μM prostaglandin E2 and 25 nM Chroman 1. Trophoblast stem-like cells appeared in the cultures and started proliferating after a very short time following the start of the culturing into TE3 medium. The cells created compact epithelial-like colonies with cobblestone morphology and clearly defined border. The individual cells gradually became more compact. This morphological transformation was most obvious at passage 3 performed in TE3 medium.
The trophoblast stem-like cells were cultured in TE3 medium with or without CEPT supplementation, and also with or without Chroman 1 supplementation. For Chroman 1 or CEPT supplementation, when the trophoblast stem-like cells were passaged, the cells were seeded into TE3 medium supplemented with either an additional 25 nM Chroman 1 (for Chroman 1 supplementation) or CEPT containing 25 nM Chroman 1 (for CEPT supplementation). Since TE3 medium already contained 25 nM Chroman 1, only another 25 nM was added either alone or as a component of CEPT, so that the total concentration of Chroman 1 in TE3 medium was 50 nM for the first 24 hours after passaging. […]

This is an account of results in patent publication US12644097B2, “Differentiation of trophectoderm lineage cells from pluripotent stem cells” (The United States of America, as represented by the …, priority 2020, dated 2026).

As usually defined, the IC50 is the concentration that inhibits the measured activity by half. With `O=C(COc1ccc(Cl)cc1)NC1CCC(NC(=O)COc2ccc(Cl)cc2)CC1` (stereo not drawn) [cis-ISRIB], the 50% inhibitory concentration (IC50) in assay [1] is 0.6 µM.
`COc1ccc2c(c1)C[C@H](C(=O)Nc1ccc(-c3cn[nH]c3)cc1OCCN(C)C)CO2` [Chroman 1, (3S)—N-{2-[2-(Dimethylamino)ethoxy]-4-(1H-pyrazol-4-yl)phenyl}-6-methoxy-3,4-dihydro-2H-1-benzopyran-3-carboxamide]: the “effect of supplementation at passaging on trophoblast stem-like cells” value in assay [2] is on record as “benefited”.
Consider `O=C(COc1ccc(Cl)cc1)N[C@H]1CC[C@H](NC(=O)COc2ccc(Cl)cc2)CC1` [trans-ISRIB, N,N′-((1r,4r)-cyclohexane-1,4-diyl)bis(2-(4-chlorophenoxy)acetamide)], for which the IC50 in assay [1] was 0.005 µM. Besides, the “potency of trans-ISRIB relative to cis-ISRIB” value in assay [1] (trans-ISRIB more potent than cis-ISRIB, Sidrauski et al. 2013) is 100 fold.
